Legend:
[1] = biological target: T1, Recombinant human HSP90α (Homo sapiens, UniProt P07900); assay: HSP90 radioligand filter binding test ([3H]17AAG competition)
T1 construct: host or cells: E. coli
Text: The binding of geldanamycin or 17-allylamino-17-demethoxygeldanamycin (17AAG) to HSP90 and competitive inhibition thereof can be utilised in order to determine the inhibitory activity of the compounds according to the invention (Carreras et al. 2003, Chiosis et al. 2002).
In the specific case, a radioligand filter binding test is used. The radioligand used here is tritium-labelled 17-allylaminogeldanamycin, [3H]17AAG. This filter binding test allows a targeted search for inhibitors which interfere with the ATP binding site.
Recombinant human HSP90α (E. coli expressed, 95% purity); [3H]17AAG (17-allylaminogeldanamycin, [allylamino-2,3-^3H. Specific activity: 1.11×10^12 Bq/mmol (Moravek, MT-1717);
HEPES filter buffer (50 mM HEPES, pH 7.0, 5 mM MgCl2, BSA 0.01%) Multiscreen FB (1 μm) filter plate (Millipore, MAFBNOB 50).
The 96-well microtitre filter plates are firstly irrigated and coated with 0.1% of polyethylenimine.
At the end of the reaction, the supernatant in the filter plate is removed by suction with the aid of a vacuum manifold (Multiscreen Separation System, Millipore), and the filter is washed twice.
The filter plates are then measured in a beta counter (Microbeta, Wallac) with scintillator (Microscint 20, Packard).
“% of control” is determined from the “counts per minutes” values and the IC50 value of a compound is calculated therefrom.

[2] = Relative stability of polymorphic forms of C1; assay type: physicochemical; conditions: form A1 versus form A2 of C1
Text: Two polymorphic forms A1 and A2 of the compound “C1” according to the invention can be isolated.
Form A2 can be converted into A1, for example by stirring in solvents such as methanol, ethanol, acetone, DMF, acetic acid, formic acid, THF or isopropanol.

Row | SMILES | higher activity in HSP90 inhibition compared with "A47" ([1]; C1 versus A47 from the closest prior art) | IC50 ([1]; [3H]17AAG 0.08 μM, 22° C., 30 min, read-out: HSP90 inhibition IC50) | thermodynamic stability of polymorphic form [2]
1 | CCCCN(C)C(=O)c1cc(-c2n[nH]c(=O)n2-c2ccccc2C)c(O)cc1O [Compound C1, 5-[4-(2-methylphenyl)-3-hydroxy-4H-1,2,4-triazol-5-yl]-2,4-dihydroxy-N-methyl-N-butylbenzamide] | approximately 10 times | 29 nM | –
2 | CCCCN(C)C(=O)c1cc(-c2nnc(O)n2-c2ccccc2C)c(O)cc1O [Form A1, 5-[4-(2-methylphenyl)-3-hydroxy-4H-1,2,4-triazol-5-yl]-2,4-dihydroxy-N-methyl-N-butylbenzamide] | – | – | thermodynamically more stable form

— US8816070B2, “Triazole derivative as an HSP 90 inhibitor” (Merck Patent GmbH, priority 2007, dated 2014)
